Test results from ChEMBL document CHEMBL3885861, “Open TG-GATES”.
Where a name gives a salt, the structure may show the parent alone.

Organism: Rattus norvegicus
Test: Open TG-GATES - Regimen: Single
Assay type: toxicity, organism-based, Sprague-Dawley
Design: regimen Single, gender Male, age 6 weeks
Conditions: in vivo, ip, 800 mg/kg, route intraperitoneal injection, dose level High; for APTT / Bas / Eos / Fbg / Hb / Ht / Lym / MCH / MCHC / MCV / Mono / Neu / PT / Plat / RBC / Ret / WBC: tissue Blood; for KIDNEY_L / KIDNEY_R / KIDNEY_TOTAL: tissue Kidney; for LIVER: tissue Liver; for A/G / ALP / ALT / AST / BUN / CRE / Ca / Cl / DBIL / GLC / IP / K / LDH / Na / PL / RALB / TBIL / TC / TG / TP / gamma-GTP: tissue Plasma

In the case of CCOC(=O)/C=C\C(=O)OCC [DIETHYL MALEATE], the TERMINAL_BW (3 h) was 200.3 g, the APTT (3 h) was 17 s and the Bas (3 h) was 0%. The Eos (3 h) was 1.4%, the Fbg (3 h) was 195.6 mg/dL and the Hb (3 h) was 14.1 g/dL. For the same molecule, the Ht (3 h) was 42.3%, the Lym (3 h) was 62.4% and the MCH (3 h) was 21.3 pg. It also gave an MCHC (3 h) of 33.4%, an MCV (3 h) of 63.9 fL and a Mono (3 h) of 7.8%. The Neu (3 h) was 28.4%, the PT (3 h) was 13.2 s and the Plat (3 h) was 123.8 x10_4/uL. It also gave an RBC (3 h) of 662.6 x10_4/ul, a Ret (3 h) of 9.9% and a WBC (3 h) of 59.8 x10_2/uL. For the same molecule, the KIDNEY_L (3 h) was 0.9 g, the KIDNEY_R (3 h) was 0.9 g and the KIDNEY_TOTAL (3 h) was 1.8 g. The LIVER (3 h) was 7.9 g, the A/G (3 h) was 1.7 and the ALP (3 h) was 764.4 IU/L. For the same molecule, the ALT (3 h) was 48.8 IU/L, the AST (3 h) was 96.2 IU/L and the BUN (3 h) was 19.2 mg/dL. The CRE (3 h) was 0.5 mg/dL, the Ca (3 h) was 10.7 mg/dL and the Cl (3 h) was 105.2 meq/L. For the same molecule, the DBIL (3 h) was 0.01 mg/dL, the GLC (3 h) was 218.6 mg/dL and the IP (3 h) was 10.8 mg/dL. The K (3 h) was 5.2 meq/L, the LDH (3 h) was 209.4 IU/L and the Na (3 h) was 136 meq/L. The PL (3 h) was 101.8 mg/dL, the RALB (3 h) was 3.5 g/dL and the TBIL (3 h) was 0.5 mg/dL. It also gave a TC (3 h) of 59.4 mg/dL, a TG (3 h) of 20.2 mg/dL and a TP (3 h) of 5.5 g/dL. It also gave a gamma-GTP (3 h) of 1 IU/L, a TERMINAL_BW (6 h) of 195.6 g and an APTT (6 h) of 16.8 s. It also gave a Bas (6 h) of 0%, an Eos (6 h) of 0.8% and a Fbg (6 h) of 206.2 mg/dL. For the same molecule, the Hb (6 h) was 14.2 g/dL, the Ht (6 h) was 42.4% and the Lym (6 h) was 71.8%. It also gave an MCH (6 h) of 22.1 pg, an MCHC (6 h) of 33.5% and an MCV (6 h) of 65.9 fL. It also gave a Mono (6 h) of 8.6%, a Neu (6 h) of 18.8% and a PT (6 h) of 12.2 s. The Plat (6 h) was 126 x10_4/uL, the RBC (6 h) was 644.2 x10_4/ul and the Ret (6 h) was 10.4%. The WBC (6 h) was 78.9 x10_2/uL, the KIDNEY_L (6 h) was 0.9 g and the KIDNEY_R (6 h) was 0.9 g. It also gave a KIDNEY_TOTAL (6 h) of 1.8 g, an LIVER (6 h) of 7.6 g and an A/G (6 h) of 2. For the same molecule, the ALP (6 h) was 784.8 IU/L, the ALT (6 h) was 53.2 IU/L and the AST (6 h) was 101 IU/L. The BUN (6 h) was 22 mg/dL, the CRE (6 h) was 0.5 mg/dL and the Ca (6 h) was 10.9 mg/dL. The Cl (6 h) was 105.6 meq/L, the DBIL (6 h) was 0.012 mg/dL and the GLC (6 h) was 204 mg/dL. The IP (6 h) was 10.2 mg/dL, the K (6 h) was 5.4 meq/L and the LDH (6 h) was 205 IU/L. For the same molecule, the Na (6 h) was 136.2 meq/L, the PL (6 h) was 124.6 mg/dL and the RALB (6 h) was 3.7 g/dL. For the same molecule, the TBIL (6 h) was 0.5 mg/dL, the TC (6 h) was 77.6 mg/dL and the TG (6 h) was 28.2 mg/dL. It also gave a TP (6 h) of 5.6 g/dL, a gamma-GTP (6 h) of 1 IU/L and a TERMINAL_BW (9 h) of 191 g. It also gave an APTT (9 h) of 16.8 s, a Bas (9 h) of 0% and an Eos (9 h) of 0.8%. The Fbg (9 h) was 190.4 mg/dL, the Hb (9 h) was 13.7 g/dL and the Ht (9 h) was 40.9%. For the same molecule, the Lym (9 h) was 63.6%, the MCH (9 h) was 21.5 pg and the MCHC (9 h) was 33.5%. For the same molecule, the MCV (9 h) was 64 fL, the Mono (9 h) was 8.6% and the Neu (9 h) was 27.2%. It also gave a PT (9 h) of 12.4 s, a Plat (9 h) of 126 x10_4/uL and an RBC (9 h) of 638 x10_4/ul. The Ret (9 h) was 8.8%, the WBC (9 h) was 90.6 x10_2/uL and the KIDNEY_L (9 h) was 0.9 g. It also gave a KIDNEY_R (9 h) of 0.9 g, a KIDNEY_TOTAL (9 h) of 1.8 g and an LIVER (9 h) of 7.1 g. For the same molecule, the A/G (9 h) was 2.3, the ALP (9 h) was 702.8 IU/L and the ALT (9 h) was 38.6 IU/L. For the same molecule, the AST (9 h) was 101.8 IU/L, the BUN (9 h) was 19.2 mg/dL and the CRE (9 h) was 0.4 mg/dL. The Ca (9 h) was 10.4 mg/dL, the Cl (9 h) was 106 meq/L and the DBIL (9 h) was 0 mg/dL. The GLC (9 h) was 195 mg/dL, the IP (9 h) was 9.5 mg/dL and the K (9 h) was 4.9 meq/L. For the same molecule, the LDH (9 h) was 134.8 IU/L, the Na (9 h) was 137 meq/L and the PL (9 h) was 115.6 mg/dL. The RALB (9 h) was 3.6 g/dL, the TBIL (9 h) was 0.5 mg/dL and the TC (9 h) was 71.2 mg/dL. The TG (9 h) was 15 mg/dL, the TP (9 h) was 5.2 g/dL and the gamma-GTP (9 h) was 2 IU/L. For the same molecule, the TERMINAL_BW (24 h) was 198.4 g, the APTT (24 h) was 15.2 s and the Bas (24 h) was 0%. For the same molecule, the Eos (24 h) was 0.8%, the Fbg (24 h) was 183 mg/dL and the Hb (24 h) was 13.2 g/dL. It also gave a Ht (24 h) of 39.6%, a Lym (24 h) of 79.2% and an MCH (24 h) of 21.7 pg. It also gave an MCHC (24 h) of 33.4%, an MCV (24 h) of 65 fL and a Mono (24 h) of 5.2%. For the same molecule, the Neu (24 h) was 15%, the PT (24 h) was 11.7 s and the Plat (24 h) was 122 x10_4/uL. It also gave an RBC (24 h) of 609.6 x10_4/ul, a Ret (24 h) of 8.5% and a WBC (24 h) of 126.8 x10_2/uL. It also gave a KIDNEY_L (24 h) of 0.9 g, a KIDNEY_R (24 h) of 0.9 g and a KIDNEY_TOTAL (24 h) of 1.8 g. For the same molecule, the LIVER (24 h) was 8.9 g, the A/G (24 h) was 2.3 and the ALP (24 h) was 756.4 IU/L. It also gave an ALT (24 h) of 34.8 IU/L, an AST (24 h) of 67.6 IU/L and a BUN (24 h) of 18 mg/dL. For the same molecule, the CRE (24 h) was 0.4 mg/dL, the Ca (24 h) was 10.5 mg/dL and the Cl (24 h) was 106.4 meq/L. It also gave a DBIL (24 h) of 0.022 mg/dL, a GLC (24 h) of 189.2 mg/dL and an IP (24 h) of 7.2 mg/dL. For the same molecule, the K (24 h) was 5.2 meq/L, the LDH (24 h) was 123 IU/L and the Na (24 h) was 138.6 meq/L. For the same molecule, the PL (24 h) was 135.8 mg/dL, the RALB (24 h) was 3.7 g/dL and the TBIL (24 h) was 0.4 mg/dL. It also gave a TC (24 h) of 69.4 mg/dL, a TG (24 h) of 98 mg/dL and a TP (24 h) of 5.3 g/dL. It also gave a gamma-GTP (24 h) of 2 IU/L.
